# Source: patent US20240383904A1, “HETEROCYCLIC COMPOUNDS” (Hoffmann-La Roche Inc., priority 2021, published 2024)
# Molecular target: T1, MAGL (Homo sapiens, UniProt Q99685)
# T1 sequence (Q99685 1-303): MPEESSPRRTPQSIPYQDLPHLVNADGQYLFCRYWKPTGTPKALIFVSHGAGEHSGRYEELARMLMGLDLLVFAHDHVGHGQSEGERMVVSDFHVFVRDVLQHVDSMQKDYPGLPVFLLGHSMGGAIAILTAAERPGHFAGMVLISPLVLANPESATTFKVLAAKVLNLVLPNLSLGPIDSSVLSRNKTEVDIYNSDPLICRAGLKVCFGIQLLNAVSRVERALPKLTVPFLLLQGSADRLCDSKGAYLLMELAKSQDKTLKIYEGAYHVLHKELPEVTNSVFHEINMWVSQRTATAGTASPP
# Assay: 2-AG assay: MAGL inhibitory activity by hydrolysis of 2-arachidonoylglycerol to arachidonic acid, followed by mass spectrometry
# Assay type: biochemical
# Details: 15 min preincubation, 30 min reaction at RT, 8 μM 2-arachidonoylglycerol
row,Compound,IC50 [nM]
1,"O=C1CCC2(CN(C(=O)N3CC4(CCC(NS(=O)(=O)c5cccc(OC(F)(F)F)c5)CC4)C3)C2)N1 [Example 116, N-[2-(6-keto-2,5-diazaspiro[3.4]octane-2-carbonyl)-2-azaspiro[3.5]nonan-7-yl]-3-(trifluoromethoxy)benzene-sulfonamide]",1.73
2,"CS(=O)(=O)c1ccc(CC2CC3(C2)CN(C(=O)N2CC4(COCC(=O)N4)C2)C3)cc1C(F)(F)F [Example 181, 2-[6-[[4-methylsulfonyl-3-(trifluoromethyl)phenyl]methyl]-2-azaspiro[3.3]heptane-2-carbonyl]-8-oxa-2,5-diazaspiro[3.5]nonan-6-one]",1.45
3,O=C1COCC2(CN(C(=O)N3CC4(CC(Cc5ccc(F)cc5C(F)(F)F)C4)C3)C2)N1 [Example 143],0.07
4,"2-[6-[[6- (trifluoromethyl)pyrida- zin-3-y1]methyl]-2- azaspiro[3.3]heptane-2- carbonyl]-2,5- diazaspiro[3.4]octan-6- one [Example 12]",36.4
5,"CS(=O)(=O)c1ccc(CC2CCC3(C2)CN(C(=O)N2CC4(COCC(=O)N4)C2)C3)cc1 (centres unmarked) [Example 72, 2-[6-(4-mesylbenzyl)-2-azaspiro[3.4]octane-2-carbonyl]-8-oxa-2,5-diazaspiro[3.5]nonan-6-one]",98.2
6,"O=C1NC2(CO1)CN(C(=O)N1CC3(CC(Cc4cncc(F)c4)C3)C1)C2 [Example 37, 2-[6-[(5-fluoro-3-pyridyl)methyl]-2-azaspiro[3.3]heptane-2-carbonyl]-7-oxa-2,5-diazaspiro[3.4]octan-6-one]",1.91
7,"O=C1NC2(CO1)CN(C(=O)N1CC3(CCC(Oc4ccnc(C(F)(F)F)n4)CC3)C1)C2 [Example 68, 2-[7-[2-(trifluoromethyl)pyrimi-din-4-yl]oxy-2-azaspiro[3.5]nonane-2-carbonyl]-7-oxa-2,5-diazaspiro[3.4]octan-6-one]",2.13
8,"O=C1CCC2(CN(C(=O)N3CC4(CCC(Nc5cnc(C(F)(F)F)cn5)CC4)C3)C2)N1 [Example 129, 2-[7-[[5-(trifluoromethyl)pyrazin-2-yl]amino]-2-azaspiro[3.5]nonane-2-carbonyl]-2,5-diazaspiro[3.4]octan-6-one]",66.7
9,"O=C1NC2(CO1)CN(C(=O)N1CC3(CC(NCC4(C(F)(F)F)CC4)C3)C1)C2 [Example 119, 2-[6-[[1-(trifluoromethyl)cyclopro-pyl]methylamino]-2-azaspiro[3.3]heptane-2-carbonyl]-7-oxa-2,5-diazaspiro[3.4]octan-6-one]",2.93
10,"O=C1COCC2(CN(C(=O)N3CC4(CC(Cc5ccc(C(F)(F)F)cn5)C4)C3)C2)N1 [Example 170, 2-[6-[[5-(trifluoromethyl)-2-pyridyl]methyl]-2-azaspiro[3.3]heptane-2-carbonyl]-8-oxa-2,5-diazaspiro[3.5]nonan-6-one]",7.82
11,"O=C1NC2(CCO1)CN(C(=O)N1CC3(CCC(OCC4(C(F)(F)F)CC4)CC3)C1)C2 [Example 130, 2-[7-[[1-(trifluoromethyl)cyclopro-pyl]methoxy]-2-azaspiro[3.5]nonane-2-carbonyl]-7-oxa-2,5-diazaspiro[3.5]nonan-6-one]",186
12,"O=C1COCC2(CN(C(=O)N3CC4(CC(Cc5cncc(Cl)c5)C4)C3)C2)N1 [Example 172, 2-[6-[(5-chloro-3-pyridyl)methyl]-2-azaspiro[3.3]heptane-2-carbonyl]-8-oxa-2,5-diazaspiro[3.5]nonan-6-one]",38.2
13,"O=C1NC2(CO1)CN(C(=O)N1CC3(CCC(Cc4ccc(C(F)(F)F)nc4)C3)C1)C2 (centres unmarked) [Example 110, 2-[6-[[6-(trifluoromethyl)-3-pyridyl]methyl]-2-azaspiro[3.4]octane-2-carbonyl]-7-oxa-2,5-diazaspiro[3.4]octan-6-one]",0.24
14,"O=C1NC2(CO1)CN(C(=O)N1CC3(CC(Cc4ccc(C(F)(F)F)nc4)C3)C1)C2 [Example 14, 2-[6-[[6-(trifluoromethyl)-3-pyridyl]methyl]-2-azaspiro[3.3]heptane-2-carbonyl]-7-oxa-2,5-diazaspiro[3.4]octan-6-one]",0.84
15,"CS(=O)(=O)c1cc(C(F)(F)F)ccc1CC1CC2(C1)CN(C(=O)N1CC3(CCC(=O)N3)C1)C2 [Example 35, 2-[6-[2-mesyl-4-(trifluoromethyl)benzyl]-2-azaspiro[3.3]heptane-2-carbonyl]-2,5-diazaspiro[3.4]octan-6-one]",1.43

# Further lines, results first:
row,IC50 [nM],Compound
1,540,"O=C1CCCC2(CN(C(=O)N3CC4(CC(Cn5cc(C(F)(F)F)cn5)C4)C3)C2)N1 [Example 274, 2-[6-[[4-(trifluoromethyl)pyrazol-1-yl]methyl]-2-azaspiro[3.3]heptane-2-carbonyl]-2,5-diazaspiro[3.5]nonan-6-one]"
2,0.06,"N#Cc1cc(C(F)(F)F)ccc1CC1CC2(C1)CN(C(=O)N1CC3(COC(=O)N3)C1)C2 [Example 242, 2-[[2-(6-oxo-7-oxa-2,5-diazaspiro[3.4]octane-2-carbonyl)-2-azaspiro[3.3]heptan-6-y]methyl]-5-(trifluoroemthyl)benzoni-trile]"
3,34.5,"CS(=O)(=O)c1cc(C(F)(F)F)ccc1CC1CC2(C1)CN(C(=O)N1CC3(CCCC(=O)N3)C1)C2 [Example 185, 2-[6-[[2-methylsulfonyl-4-(trifluoromethyl)phenyl]methyl]-2-azaspiro[3.3]heptane-2-carbonyl]-2,5-diazaspiro[3.5]nonan-6-one]"
4,8.62,"O=C1CCC2(CN(C(=O)N3CC4(CC(Cc5ccnc(C(F)(F)F)n5)C4)C3)C2)N1 [Example 314, 2-[6-[[2-(trifluoromethyl)pyrimi-din-4-yl]methyl]-2-azaspiro[3.3]heptane-2-carbonyl]-2,5-diazaspiro[3.4]octan-6-one]"
5,146,"CP(C)(=O)c1ccc(CC2CC3(C2)CN(C(=O)N2CC4(CCC(=O)N4)C2)C3)c(F)c1 [Example 336, 2-[6-(4-dimethylphosphoryl-2-fluoro-benzyl)-2-azaspiro[3.3]heptane-2-carbonyl]-2,5-diazaspiro[3.4]octan-6-one]"
6,730,"Cc1sc(CN2CC3(C2)CN(C(=O)N2CC4(CCC(=O)N4)C2)C3)nc1C(F)(F)F [Example 341, 2-[6-[[5-methyl-4-(trifluoromethyl)thiazol-2-yl]methyl]-2,6-diazaspiro[3.3]heptane-2-carbonyl]-2,5-diazaspiro[3.4]octan-6-one]"
7,116,"O=C1CCC2(CN(C(=O)N3CC4(C3)CN(S(=O)(=O)c3ccccc3OC(F)(F)F)C4)C2)N1 [Example 200, 2-[2-[2-(trifluoromethoxy)phenyl]sulfonyl-2,6-diazaspiro[3.3]heptane-6-carbonyl]-2,5-diazaspiro[3.4]octan-6-one]"
8,0.48,"N=S(=O)(c1ccc(CC2CC3(C2)CN(C(=O)N2CC4(CCC(=O)N4)C2)C3)c(F)c1)C(F)(F)F (centres unmarked) [Example 265, 2-[6-[[2-fluoro-4-(trifluoromethylsulfoni-midoyl)phenyl]methyl]-2-azaspiro[3.3]heptane-2-carbonyl]-2,5-diazaspiro[3.5]octan-6-one]"
9,3.73,"Cn1cc(C(F)(F)F)c(CC2CC3(C2)CN(C(=O)N2CC4(CCC(=O)N4)C2)C3)n1 [Example 304, 2-[6-[[1-methyl-4-(trifluoromethyl)pyrazol-3-yl]methyl]-2-azaspiro[3.3]heptane-2-carbonyl]-2,5-diazaspiro[3.4]octan-6-one]"
10,11.8,"Cn1cc(CC2CC3(C2)CN(C(=O)N2CC4(COCC(=O)N4)C2)C3)c(C(F)(F)F)n1 [Example 370, 2-[6-[[1-methyl-3-(trifluoromethyl)pyrazol-4-yl]methyl]-2-azaspiro[3.3]heptane-2-carbonyl]-8-oxa-2,5-diazaspiro[3.5]nonan-6-one]"
11,6.44,"O=C1CCC2(CN(C(=O)N3CC4(CCC(S(=O)(=O)c5ccc(C(F)(F)F)cc5)CC4)C3)C2)N1 [Example 281, 2-[7-[4-(trifluoromethyl)phenyl]sulfonyl-2-azaspiro[3.5]nonane-2-carbonyl]-2,5-diazaspiro[3.4]octan-6-one]"
12,0.43,"N#Cc1ncc(CC2CC3(C2)CN(C(=O)N2CC4(COC(=O)N4)C2)C3)cc1C(F)(F)F [Example 261, 5-[[2-(6-oxo-7-oxa-2,5-diazaspiro[3.4]octane-2-carbonyl)-2-azaspiro[3.3]heptan-6-yl]methyl]-3-(trifluoromethyl)pyridine-2-carbonitrile]"
13,15.4,"N#Cc1ccc(OC2CC3(C2)CN(C(=O)N2CC4(CCC(=O)N4)C2)C3)cc1C(F)(F)F [Example 301, 4-[[2-(6-oxo-2,5-diazaspiro[3.4]octane-2-carbonyl)-2-azaspiro[3.3]heptan-6-yl]oxy]-2-(trifluoromethyl)benzoni-trile]"
14,1600,"O=C1CCC2(CN(C(=O)N3CC4(CN(Cc5nnc(C(F)(F)F)s5)C4)C3)C2)N1 [Example 342, 2-[6-[[5-(trifluoromethyl)-1,3,4-thiadiazol-2-yl]methyl]-2,6-diazaspiro[3.3]heptane-2-carbonyl]-2,5-diazaspiro[3.4]octan-6-one]"
15,0.6,"N#Cc1cc(CC2CC3(C2)CN(C(=O)N2CC4(COC(=O)N4)C2)C3)cnc1C(F)(F)F [Example 243, 5-[[2-(6-oxo-7-oxa-2,5-diazaspiro[3.4]octane-2-carbonyl)-2-azaspiro[3.3]heptan-6-yl]methyl]-2-(trifluoromethyl)pyridine-3-carbonitrile]"
16,1380,"O=C1CCCC2(CN(C(=O)N3CC4(CCN(Cc5cccc(S(=O)(=O)C(F)(F)F)c5)C4)C3)C2)N1 [Example 266, 2-[7-[[3-(trifluoromethylsulfonyl)phenyl]methyl]-2,7-diazaspiro[3.4]octane-2-carbonyl]-2,5-diazaspiro[3.5]nonan-6-one]"
17,0.19,"O=C1NC2(CO1)CN(C(=O)N1CC3(CC(Cc4ccc(OC(F)(F)F)nc4)C3)C1)C2 [Example 355, 2-[6-[[6-(trifluoromethoxy)-3-pyridyl]methyl]-2-azaspiro[3.3]heptane-2-carbonyl]-7-oxa-2,5-diazaspiro[3.4]octan-6-one]"
